In ChEMBL document CHEMBL3352133, “Antimalarial chemotherapy: orally curative artemisinin-derived trioxane dimer esters” (Bioorg Med Chem Lett, 2015):

Legend:
Plasmodium berghei [1] = assay: Antimalarial activity Plasmodium berghei ANKA infected in C57BL/6J mouse assessed as suppression of parasitemia at 6 mg/kg, po administered as single dose combined with 18 mg/kg mefloquine hydrochloride measured on day 3 after innfection; format: functional
Plasmodium berghei [2] = assay: Antimalarial activity Plasmodium berghei ANKA infected in C57BL/6J mouse assessed as mouse survival at 6 mg/kg, po administered as single dose combined with 18 mg/kg mefloquine hydrochloride; format: functional
[3] = Lipophilicity, logP of the compound; format: physicochemical; conditions: octanol/water
Plasmodium = assay: Antimalarial activity Plasmodium; format: functional
[4] = Stability in pH 2 in acetonitrile and water at 37 degC; format: physicochemical; conditions: acetonitrile and water at pH 2, pH 2; read-out: Stability (converted)

Structure (SMILES)	Activity (Plasmodium berghei [1]) [%]	Survival (Plasmodium berghei [2]) [days]	logP ([3]; read-out: logP)	IC50 (Plasmodium) [nM]	logP [3]	half-life [4] [h]
C[C@H]1[C@@H](CC(CO)C[C@H]2O[C@@H]3O[C@@]4(C)CC[C@H]5[C@H](C)CC[C@@H]([C@H]2C)[C@@]35OO4)O[C@@H]2O[C@@]3(C)CC[C@H]4[C@H](C)CC[C@@H]1[C@@]24OO3 (stereo not given in full)	>99.9	26				
C[C@H]1[C@@H](CC(COC(=O)c2ccncc2)C[C@H]2O[C@@H]3O[C@@]4(C)CC[C@H]5[C@H](C)CC[C@@H]([C@H]2C)[C@@]35OO4)O[C@@H]2O[C@@]3(C)CC[C@H]4[C@H](C)CC[C@@H]1[C@@]24OO3	>99.9	24.3	7.8	1.7		
C[C@H]1[C@@H](CC(COC(=O)c2ccnc(Cl)c2Cl)C[C@H]2O[C@@H]3O[C@@]4(C)CC[C@H]5[C@H](C)CC[C@@H]([C@H]2C)[C@@]35OO4)O[C@@H]2O[C@@]3(C)CC[C@H]4[C@H](C)CC[C@@H]1[C@@]24OO3	>99.9	26			9.2	
C[C@H]1[C@@H](CC(COC(=O)c2cc(Cl)nc(Cl)c2)C[C@H]2O[C@@H]3O[C@@]4(C)CC[C@H]5[C@H](C)CC[C@@H]([C@H]2C)[C@@]35OO4)O[C@@H]2O[C@@]3(C)CC[C@H]4[C@H](C)CC[C@@H]1[C@@]24OO3	>99.9	25.8			9.5	
Cc1cc(C(=O)OCC(C[C@H]2O[C@@H]3O[C@@]4(C)CC[C@H]5[C@H](C)CC[C@@H]([C@H]2C)[C@@]35OO4)C[C@H]2O[C@@H]3O[C@@]4(C)CC[C@H]5[C@H](C)CC[C@@H]([C@H]2C)[C@@]35OO4)cc(Cl)n1	>99.9	28.5			9.5	
Cc1cc(C(=O)OCC(C[C@H]2O[C@@H]3O[C@@]4(C)CC[C@H]5[C@H](C)CC[C@@H]([C@H]2C)[C@@]35OO4)C[C@H]2O[C@@H]3O[C@@]4(C)CC[C@H]5[C@H](C)CC[C@@H]([C@H]2C)[C@@]35OO4)cc(C)n1	>99.9	25.8	8.1			
C[C@H]1[C@@H](CC(COC(=O)c2cc(F)nc(F)c2)C[C@H]2O[C@@H]3O[C@@]4(C)CC[C@H]5[C@H](C)CC[C@@H]([C@H]2C)[C@@]35OO4)O[C@@H]2O[C@@]3(C)CC[C@H]4[C@H](C)CC[C@@H]1[C@@]24OO3	>99.9	23.5	8.9			
C[C@H]1[C@@H](CC(COC(=O)c2cc(F)cc(F)c2)C[C@H]2O[C@@H]3O[C@@]4(C)CC[C@H]5[C@H](C)CC[C@@H]([C@H]2C)[C@@]35OO4)O[C@@H]2O[C@@]3(C)CC[C@H]4[C@H](C)CC[C@@H]1[C@@]24OO3	>99.9	29			9.3	
C[C@H]1[C@@H](CC(COC(=O)c2cc(Cl)cc(Cl)c2)C[C@H]2O[C@@H]3O[C@@]4(C)CC[C@H]5[C@H](C)CC[C@@H]([C@H]2C)[C@@]35OO4)O[C@@H]2O[C@@]3(C)CC[C@H]4[C@H](C)CC[C@@H]1[C@@]24OO3	>99.9	30			10.2	96
C[C@H]1[C@@H](CC(COC(=O)c2ccc(Cl)nc2Cl)C[C@H]2O[C@@H]3O[C@@]4(C)CC[C@H]5[C@H](C)CC[C@@H]([C@H]2C)[C@@]35OO4)O[C@@H]2O[C@@]3(C)CC[C@H]4[C@H](C)CC[C@@H]1[C@@]24OO3	>99.9	30			9.5	96
CO[C@H]1O[C@@H]2O[C@@]3(C)CC[C@H]4[C@H](C)CC[C@@H]([C@H]1C)[C@@]24OO3 [ARTEMETHER]	>99.9	20.8				
C[C@@H]1CC[C@H]2[C@@H](C)C(=O)O[C@@H]3O[C@@]4(C)CC[C@@H]1[C@]32OO4 [ARTEMISININ]				9		
